Experimental data: PubChem BioAssay (NCI)
“And” between values parts separate entries of the source, which are not always exact repeats. Equal values may be shown once.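 Values below derive from 48-hour exposures of cells grown in 96-well plates, with endpoints linearly interpolated between the two concentrations bracketing the appropriate inhibition level. The concentration for 50% growth inhibition is given as GI50. TGI is the concentration that stops growth completely.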

Key:
Experiment in all cases: growth of human tumour cells (NCI), 48 h
[1] = test system: A549 NSCLC
[2] = test system: CCRF-CEM leukemia
[3] = test system: EKVX NSCLC
[4] = test system: HCT-116 colon
[5] = test system: HOP-62 NSCLC
[6] = test system: MDA-MB-435
[7] = test system: MDA-N
[8] = test system: SNB-19 CNS
[9] = test system: TK-10 renal
[10] = test system: SF-539 CNS

| SMILES | TGI [1] | TGI [2] | TGI [3] | TGI [4] | TGI [5] | TGI [6] | TGI [7] | TGI [8] | TGI [9] | TGI [10] | GI50 [9] |
| --- | --- | --- | --- | --- | --- | --- | --- | --- | --- | --- | --- |
| C/C1=C\CC[C@@]2(C)O[C@@H]2C[C@@H]2[C@H](C/C(C)=C/CC1)OC(=O)[C@]21CO1 | > 100 µM | > 100 µM | > 100 µM | > 100 µM | > 100 µM | > 100 µM | > 100 µM | > 100 µM | > 100 µM | – | – |
| CC(C)OP(=O)(OC(C)C)/C(=N/Nc1ccc([N+](=O)[O-])cc1)NNC(=O)c1ccccc1 | > 100 µM | 55.4 µM | > 100 µM | > 100 µM | > 100 µM | – | – | > 100 µM | > 100 µM | > 100 µM | – |
| CCCc1cn2c(/C=N/N=C(N)N)c(-c3ccc([N+](=O)[O-])cc3)nc2s1 | 2.91 µM | 1.3 µM | 3.62 µM | 1.6 µM | 3.16 µM | 3.1 µM | – | 2.9 µM | 3.93 µM | 9.84 µM | – |
| CC(C)(Cl)C(Cl)CC/C(CBr)=C(\Cl)CBr (centres undefined) | 30.3 µM | 0.325 µM | 30.1 µM | 5.89 µM | 4.91 µM | 5.34 µM | 3.65 µM | 29.2 µM | 3.82 µM | 5.53 µM | – |
| Oc1c(Cl)c(Cl)c(O)c(-c2cnc(-c3ncc(-c4c(O)c(Cl)c(Cl)c(O)c4Cl)s3)s2)c1Cl | > 100 µM | > 100 µM | 61.5 µM | 42 µM | > 100 µM | 47.7 µM | – | 88.1 µM | 70.1 µM | 81.7 µM | – |
| O=C(O)CCC1(CCC(=O)O)CCCCCCCCC(CCC(=O)O)(CCC(=O)O)C(=O)C1=O | > 100 µM | – | > 100 µM | > 100 µM | > 100 µM | > 100 µM | – | > 100 µM | > 100 µM | > 100 µM | – |
| Cc1cc2nc3c(C#N)c4c(c(Cl)n3c2cc1C)CCC4 | – | – | > 100 µM | 29.6 µM | > 100 µM | 42.5 µM | – | – | 70.6 µM | 49.5 µM | – |
| CC(=O)OC1(C)CC(C)C(=O)C(C(O)CC2CC(=O)NC(=O)C2)C1 (centres undefined) | 0.936 µM and 3.32 µM | – | 0.37 µM and 0.631 µM | – | 0.0683 µM | 0.272 µM and 0.733 µM | 0.204 µM and 0.215 µM | 0.598 µM | 0.164 µM | – | 0.0117 µM |
| Cc1cc(N(CCC#N)CCC#N)ccc1/C=C(\N=[N+]=[N-])C(=O)NC(=O)COc1ccccc1 | > 100 µM | > 100 µM | > 100 µM | > 100 µM | > 100 µM | – | – | > 100 µM | > 100 µM | > 100 µM | – |
| COc1ccc(OC)c(CCc2ccccc2CC(=O)O)c1 | > 100 µM | > 100 µM | > 100 µM | > 100 µM | – | – | – | > 100 µM | > 100 µM | > 100 µM | – |
| O=C(OCC1CC(C2(O)CCCCC2)C(=O)O1)c1ccccc1 (centres undefined) | > 100 µM | > 100 µM | > 100 µM | > 100 µM | > 100 µM | > 100 µM | – | > 100 µM | > 100 µM | > 100 µM | – |
| O=C(NCCCN1CCN(CCCNC(=O)c2cc(-c3ccccc3)nc3ccccc23)CC1)c1cc(-c2ccccc2)nc2ccccc12 | 48.7 µM | > 56.4 µM | 51.5 µM | > 100 µM | 41.3 µM | 14.7 µM | 20.4 µM | 33 µM | 60.2 µM | 41.5 µM | – |
| Cc1ccc(/C=C2\CCS(=O)(=O)c3ccccc3C2=O)cc1 | > 100 µM | 62.3 µM | 34.9 µM | 26.1 µM | 80.4 µM | 55.2 µM | 77.2 µM | 36.5 µM | 30.9 µM | > 100 µM | – |
| CCCCCCCC(=O)OC(COC(=O)Cc1ccccc1)COC(=O)C(C)(C)C (centres undefined) | > 100 µM | > 100 µM | – | > 100 µM | > 100 µM | – | – | > 100 µM | > 100 µM | – | – |
| COc1c(-c2ccc(F)cc2)oc2c(CC(=O)O)cccc2c1=O | > 100 µM | > 100 µM | > 100 µM | > 100 µM | > 100 µM | > 100 µM | > 100 µM | – | > 100 µM | > 100 µM | – |
| CC(=O)OC1CC2C(=O)CC1(C)C2(C)C (centres undefined) | > 100 µM | > 100 µM | > 100 µM | > 100 µM | > 100 µM | > 100 µM | > 100 µM | > 100 µM | > 100 µM | > 100 µM | – |
| CCOC(=O)Cc1ccc(Nc2nc3cc(F)c(F)cc3nc2C(=O)OCC)cc1 | > 100 µM | > 100 µM | 56.4 µM | > 100 µM | > 100 µM | > 100 µM | > 100 µM | > 100 µM | > 100 µM | > 100 µM | – |
| O=C1NC(NNc2ccccc2)=N/C1=C\c1ccco1 | > 100 µM | > 100 µM | 46.7 µM | 37.9 µM | > 100 µM | 47.6 µM | > 100 µM | > 100 µM | 36.4 µM | – | – |
| Cc1nc2c(n1Cc1ccc(F)cc1)C(=O)c1ccccc1C2=O | > 100 µM | > 100 µM | > 100 µM | > 100 µM | > 100 µM | – | – | > 100 µM | > 100 µM | > 100 µM | – |
| CC1=C(N2CC2)C(=O)C(C)=C(N2CC2)C1=O | 75.7 µM | 3.3 µM | 2.68 µM | 19.3 µM | 1.09 µM | – | 2.9 µM | 8.33 µM | 1.5 µM | 0.808 µM | – |
| O=C(Cn1c2ccc(Br)cc2c2nc3ccccc3nc21)N1CCOCC1 | > 100 µM | > 100 µM | – | > 100 µM | > 100 µM | > 100 µM | > 100 µM | > 100 µM | > 100 µM | – | – |
| CCCCCC1CC(C(C)=O)CN1c1ccc(F)cc1 (centres undefined) | > 100 µM | – | > 100 µM | > 100 µM | – | – | – | > 10 µM | > 100 µM | > 100 µM | – |
| C=C1C(=O)O[C@H]2C1C[C@H](O)/C(C)=C/CC[C@@]1(C)O[C@H]21 (some centres undefined) | > 100 µM | 13.6 µM | 40.3 µM | 28.6 µM | 91.5 µM | 37.3 µM | 30.3 µM | > 100 µM | 29.9 µM | – | – |
| CCOC(=O)CN1C(=O)c2c(NC(=O)C(=O)O)cccc2S1(=O)=O | > 100 µM | > 100 µM | > 100 µM | > 100 µM | > 100 µM | > 100 µM | > 100 µM | > 100 µM | > 100 µM | – | – |
